According to PubChem BioAssay AID330 (DTP/NCI, 2004):
Where “and” joins values, the source holds several entries; their conditions need not be identical. Equal entries are not always repeated. Inconclusive results and toxic doses are left out.

Tested on: P388 leukemia ip, CD2F1 mice, survival T/C
Test: NCI In Vivo Anticancer Drug Screen. Data for tumor model P388 Leukemia (intraperitoneal) in CD2F1 (CDF1) mice
Conditions: endpoint: median survival time, higher = longer survival
Summary of the method: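 Mice carrying the transplanted tumor received test compound or vehicle. Survival was recorded in each group, and the value is the treated-group measurement divided by that of the vehicle-treated control group.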

[1] = dose: 25.0 mg/kg/injection, schedule: Q01DX009 (ip), vehicle: saline with Tween-80
[2] = dose: 50.0 mg/kg/injection, schedule: Q01DX009 (ip), vehicle: Klucel (hydroxypropylcellulose) (HPC)
[3] = dose: 50.0 mg/kg/injection, schedule: Q01DX009 (ip), vehicle: saline with Tween-80
[4] = dose: 100.0 mg/kg/injection, schedule: Q01DX009 (ip), vehicle: Klucel (hydroxypropylcellulose) (HPC)
[5] = dose: 100.0 mg/kg/injection, schedule: Q04DX003 (ip), vehicle: saline with Tween-80
[6] = dose: 200.0 mg/kg/injection, schedule: Q01DX009 (ip), vehicle: Klucel (hydroxypropylcellulose) (HPC)
[7] = dose: 25.0 mg/kg/injection, schedule: Q01DX009 (ip), vehicle: Klucel (hydroxypropylcellulose) (HPC)
[8] = dose: 50.0 mg/kg/injection, schedule: Q01DX005 (ip), vehicle: saline with Tween-80
[9] = dose: 100.0 mg/kg/injection, schedule: Q01DX005 (ip), vehicle: saline with Tween-80
[10] = dose: 200.0 mg/kg/injection, schedule: Q01DX005 (ip), vehicle: saline with Tween-80
[11] = dose: 100.0 mg/kg/injection, schedule: Q01DX009 (ip), vehicle: saline with Tween-80
[12] = dose: 200.0 mg/kg/injection, schedule: Q01DX009 (ip), vehicle: saline with Tween-80
[13] = dose: 25.0 mg/kg/injection, schedule: Q01DX005 (ip), vehicle: saline with Tween-80
[14] = dose: 60.0 mg/kg/injection, schedule: Q01DX005 (ip), vehicle: saline with Tween-80
[15] = dose: 120.0 mg/kg/injection, schedule: Q01DX005 (ip), vehicle: saline with Tween-80

`CC(=O)OC1Cc2c(cc3c4c(cccc24)N(C(C)=O)C3)N(C)C1` (stereo not given) was tested, and the T/C (dose: 100.0 mg/kg/injection, schedule: Q04DX002 (ip), vehicle: saline with Tween-80) was 105 % of control, the T/C (dose: 200.0 mg/kg/injection, schedule: Q04DX002 (ip), vehicle: saline with Tween-80) was 108 % of control and the T/C (dose: 400.0 mg/kg/injection, schedule: Q04DX002 (ip), vehicle: saline with Tween-80) was 100 % of control.
`CCC(C(=O)O)C(=O)O.[NH-]CC[NH-].[Pt+2]` was tested, and the T/C [1] was 190 % of control, the T/C (dose: 33.0 mg/kg/injection, schedule: Q04DX003 (ip), vehicle: saline) was 120 % of control and the T/C [2] was 160 % of control. For the same compound, the T/C [3] was 218 % of control, the T/C (dose: 50.0 mg/kg/injection, schedule: Q04DX003 (ip), vehicle: saline with Tween-80) was 181 % of control and the T/C [4] was 205 % of control. For the same compound, the T/C [5] was 195 % of control, the T/C [6] was 196 % of control and the T/C (dose: 400.0 mg/kg/injection, schedule: Q04DX003 (ip), vehicle: saline) was 155 % of control.
For `CC1CC[N-]C(CCC2CC(C)CC[N-]2)C1.CC1CC[N-]C(CCC2CC(C)CC[N-]2)C1.[Ni+2].[O-][Cl+3]([O-])([O-])O` (stereo not given), the T/C (dose: 25.0 mg/kg/injection, schedule: Q01DX001 (ip), vehicle: saline) was 99 % of control, the T/C (dose: 50.0 mg/kg/injection, schedule: Q01DX001 (ip), vehicle: saline) was 93 % of control and the T/C (dose: 100.0 mg/kg/injection, schedule: Q01DX001 (ip), vehicle: saline) was 108 % of control and 96 % of control.
In the case of `NC(=O)C(CCc1nc2ccccc2[nH]1)NS(=O)(=O)c1ccccc1` (stereo not given), the T/C [2] is reported as 102 % of control, the T/C [4] is reported as 101 % of control and the T/C [6] is reported as 102 % of control.
`COc1ccc(-c2c3c(c(O)c4cc5c(cc24)OCO5)COC3=O)cc1OC` was tested, and the T/C (dose: 12.5 mg/kg/injection, schedule: Q01DX009 (ip), vehicle: Klucel (hydroxypropylcellulose) (HPC)) was 95 % of control, the T/C [7] was 104 % of control and the T/C [2] was 99 % of control. The T/C [4] was 105 % of control.
For `CC(CN(C)C)C(=O)/C=C/c1ccc(Cl)cc1` (stereo not given), the T/C (dose: 60.0 mg/kg/injection, schedule: Q01DX005 (ip), vehicle: saline) was 118 % of control and the T/C (dose: 120.0 mg/kg/injection, schedule: Q01DX005 (ip), vehicle: saline) was 122 % of control.
With `COC(=O)c1cc(O)c(O)c(O)c1` the T/C [8] was 105 % of control, the T/C [9] was 108 % of control and the T/C [10] was 119 % of control.
In the case of `ClC(Cl)=C(Cl)Cl`, the T/C (dose: 12.5 mg/kg/injection, schedule: Q01DX009 (ip), vehicle: saline with Tween-80) is reported as 102 % of control and 107 % of control, the T/C [7] is reported as 100 % of control and 109 % of control and the T/C [1] is reported as 107 % of control and 114 % of control. For the same compound, the T/C [2] was 98 % of control and 103 % of control, the T/C [3] was 105 % of control and 112 % of control and the T/C [4] was 100 % of control and 107 % of control. For the same compound, the T/C [11] was 108 % of control and 112 % of control, the T/C [6] was 100 % of control and the T/C [12] was 107 % of control and 110 % of control. The T/C (dose: 300.0 mg/kg/injection, schedule: Q01DX009 (ip), vehicle: Klucel (hydroxypropylcellulose) (HPC)) was 104 % of control and 106 % of control.
With `Nc1nc(/C=C(/O)c2ccccc2)c2ncn(C3OC(CO)C(O)C3O)c2n1` (stereo not given) the T/C [3] was 106 % of control, the T/C [11] was 103 % of control and the T/C [12] was 114 % of control.
With `C#CC(C)(C)Nc1c2ccccc2nc2ccccc12` the T/C [8] was 96 % of control, the T/C [9] was 103 % of control and the T/C [10] was 102 % of control.
In the case of `CN=C(NC)NCCSCc1ccc2ccccc2n1`, the T/C (dose: 12.5 mg/kg/injection, schedule: Q01DX005 (ip), vehicle: saline) is reported as 115 % of control, the T/C (dose: 25.0 mg/kg/injection, schedule: Q01DX005 (ip), vehicle: saline) is reported as 118 % of control and the T/C (dose: 50.0 mg/kg/injection, schedule: Q01DX005 (ip), vehicle: saline) is reported as 102 % of control and 112 % of control.
With `CCCCN(CCCC)CC(O)c1c(OC)c2cc(Cl)ccc2c2ccc(Cl)cc12` (stereo not given) the T/C [1] was 94 % of control and the T/C [3] was 100 % of control.
For `O=P(OCc1ccccc1)(N(CCCl)CCCl)N1CCN(P(=O)(OCc2ccccc2)N(CCCl)CCCl)CC1` (stereo not given), the T/C [11] was 150 % of control and the T/C [5] was 116 % of control.
`Cc1ccc(C(=O)OC(CCN(C)C)c2ccccc2)cc1` (stereo not given) was tested, and the T/C (dose: 50.0 mg/kg/injection, schedule: Q01DX009 (ip), vehicle: saline) was 109 % of control and the T/C (dose: 100.0 mg/kg/injection, schedule: Q01DX009 (ip), vehicle: saline) was 106 % of control.
With `CN(C)/N=C1\C(=O)Nc2ccc(Br)cc21` the T/C [2] was 100 % of control, the T/C [4] was 113 % of control and the T/C [6] was 108 % of control.
For `Cc1nc(N)cc(=O)[nH]1`, the T/C (dose: 50.0 mg/kg/injection, schedule: Q01DX009 (ip), vehicle: suspension in saline) was 89 % of control, the T/C (dose: 100.0 mg/kg/injection, schedule: Q01DX009 (ip), vehicle: suspension in saline) was 93 % of control and the T/C (dose: 200.0 mg/kg/injection, schedule: Q01DX009 (ip), vehicle: suspension in saline) was 91 % of control. For the same compound, the T/C (dose: 400.0 mg/kg/injection, schedule: Q01DX009 (ip), vehicle: suspension in saline) was 101 % of control.
For `Fc1ccc2[nH]c3ncccc3c2c1`, the T/C [8] was 106 % of control, the T/C [9] was 105 % of control and the T/C [10] was 100 % of control.
`C=CC(C)(C)C1Oc2cc(OC)ccc2C(=O)C1c1ccc(OC)c(OC)c1O` (stereo not given) was tested, and the T/C (dose: 100.0 mg/kg/injection, schedule: Q04DX003 (ip), vehicle: Klucel (hydroxypropylcellulose) (HPC)) was 99 % of control, the T/C (dose: 200.0 mg/kg/injection, schedule: Q04DX003 (ip), vehicle: Klucel (hydroxypropylcellulose) (HPC)) was 98 % of control and the T/C (dose: 400.0 mg/kg/injection, schedule: Q04DX003 (ip), vehicle: Klucel (hydroxypropylcellulose) (HPC)) was 96 % of control.
With `CC(C)=Nn1c(=O)oc2cc(Cl)ccc2c1=O` the T/C (dose: 60.0 mg/kg/injection, schedule: Q01DX005 (ip), vehicle: Klucel (hydroxypropylcellulose) (HPC)) was 95 % of control, the T/C (dose: 120.0 mg/kg/injection, schedule: Q01DX005 (ip), vehicle: Klucel (hydroxypropylcellulose) (HPC)) was 100 % of control and the T/C (dose: 240.0 mg/kg/injection, schedule: Q01DX005 (ip), vehicle: Klucel (hydroxypropylcellulose) (HPC)) was 93 % of control.
`COc1cc2ccnc(/C=N\O)c2cc1OC` was tested, and the T/C (dose: 12.5 mg/kg/injection, schedule: Q01DX009 (ip), vehicle: distilled water + Tween-80) was 102 % of control, the T/C (dose: 25.0 mg/kg/injection, schedule: Q01DX009 (ip), vehicle: distilled water + Tween-80) was 116 % of control and the T/C (dose: 50.0 mg/kg/injection, schedule: Q01DX009 (ip), vehicle: distilled water + Tween-80) was 109 % of control. The T/C (dose: 100.0 mg/kg/injection, schedule: Q01DX009 (ip), vehicle: distilled water + Tween-80) was 102 % of control, the T/C (dose: 200.0 mg/kg/injection, schedule: Q01DX009 (ip), vehicle: distilled water + Tween-80) was 91 % of control and the T/C (dose: 400.0 mg/kg/injection, schedule: Q01DX009 (ip), vehicle: distilled water + Tween-80) was 93 % of control.
With `FC(F)(F)c1cc(Cl)nc(Cl)n1` the T/C (dose: 6.0 mg/kg/injection, schedule: Q01DX005 (ip), vehicle: saline with Tween-80) was 106 % of control, the T/C (dose: 12.0 mg/kg/injection, schedule: Q01DX005 (ip), vehicle: saline with Tween-80) was 97 % of control and the T/C [13] was 92 % of control.
For `Cc1oc2c(C)c3oc(=O)cc(C)c3cc2c1CO`, the T/C (dose: 100.0 mg/kg/injection, schedule: Q05DX002 (ip), vehicle: Klucel (hydroxypropylcellulose) (HPC)) was 92 % of control, the T/C (dose: 200.0 mg/kg/injection, schedule: Q05DX002 (ip), vehicle: Klucel (hydroxypropylcellulose) (HPC)) was 97 % of control and the T/C (dose: 400.0 mg/kg/injection, schedule: Q05DX002 (ip), vehicle: Klucel (hydroxypropylcellulose) (HPC)) was 95 % of control.
For `O=C(Oc1ccccc1[N+](=O)[O-])C1CCCN1C(=O)OCc1ccccc1` (stereo not given), the T/C [13] was 104 % of control, the T/C [8] was 109 % of control and the T/C [9] was 102 % of control. For the same compound, the T/C [10] was 99 % of control.
`Cn1c(=O)c(C#N)c2n(C)c3ccccc3n2c1=O` was tested, and the T/C [14] was 93 % of control, the T/C [15] was 89 % of control and the T/C (dose: 240.0 mg/kg/injection, schedule: Q01DX005 (ip), vehicle: saline with Tween-80) was 89 % of control.
`CC1(C)c2ccccc2N2C(c3ccccc3)=NN(c3ccccc3)C21C` (stereo not given) was tested, and the T/C [14] was 100 % of control and the T/C [15] was 100 % of control.
With `Nc1nc(N)nc(NC(=O)COc2cc(Cl)c(Cl)cc2Cl)n1` the T/C [11] was 95 % of control, the T/C [12] was 90 % of control and the T/C (dose: 400.0 mg/kg/injection, schedule: Q01DX009 (ip), vehicle: saline with Tween-80) was 100 % of control.
For `O=[N+]([O-])C1C2C=CC(C2)C1C(Cl)(Cl)Cl` (stereo not given), the T/C (dose: 0.19 mg/kg/injection, schedule: Q01DX009 (ip), vehicle: saline with Tween-80) was 101 % of control, the T/C (dose: 0.39 mg/kg/injection, schedule: Q01DX009 (ip), vehicle: saline with Tween-80) was 100 % of control and the T/C (dose: 0.78 mg/kg/injection, schedule: Q01DX009 (ip), vehicle: saline with Tween-80) was 98 % of control and 99 % of control.
